Assay results published in PubChem BioAssay (NCI).
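Briefly, cells in 96-well plates were exposed to five compound concentrations for 48 h, and endpoints were estimated by linear interpolation. GI50: concentration for 50% inhibition of growth. TGI: concentration producing complete growth inhibition.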

Legend:
Assay in all cases: growth of human tumour cells (NCI), 48 h
[1] = test system: 786-0 renal
[2] = test system: A498 renal
[3] = test system: A549 NSCLC
[4] = test system: ACHN renal
[5] = test system: BT-549 breast
[6] = test system: CAKI-1 renal
[7] = test system: CCRF-CEM leukemia
[8] = test system: COLO 205 colon
[9] = test system: DU-145 prostate
[10] = test system: EKVX NSCLC
[11] = test system: HCC-2998 colon
[12] = test system: HCT-116 colon
[13] = test system: HCT-15 colon
[14] = test system: HL-60(TB) leukemia
[15] = test system: HOP-62 NSCLC
[16] = test system: HOP-92 NSCLC
[17] = test system: HS 578T breast
[18] = test system: HT29 colon
[19] = test system: IGROV1 ovarian
[20] = test system: K-562 leukemia
[21] = test system: KM12 colon
[22] = test system: LOX IMVI melanoma
[23] = test system: M14 melanoma
[24] = test system: MALME-3M melanoma
[25] = test system: MCF7 breast
[26] = test system: MDA-MB-231 breast
[27] = test system: MDA-MB-435
[28] = test system: MDA-MB-468 breast
[29] = test system: MOLT-4 leukemia
[30] = test system: NCI-H226 lung
[31] = test system: NCI-H23 lung
[32] = test system: NCI-H460 lung
[33] = test system: NCI-H522 lung
[34] = test system: OVCAR-3 ovarian
[35] = test system: OVCAR-4 ovarian
[36] = test system: OVCAR-5 ovarian
[37] = test system: OVCAR-8 ovarian
[38] = test system: PC-3 prostate
[39] = test system: RPMI-8226 leukemia
[40] = test system: RXF 393 renal
[41] = test system: SF-268 CNS
[42] = test system: SF-295 CNS
[43] = test system: SF-539 CNS
[44] = test system: SK-MEL-2 melanoma
[45] = test system: SK-MEL-28 melanoma
[46] = test system: SK-MEL-5 melanoma
[47] = test system: SK-OV-3 ovarian
[48] = test system: SN12C renal
[49] = test system: SNB-19 CNS
[50] = test system: SNB-75 CNS
[51] = test system: SR leukemia
[52] = test system: SW-620 colon
[53] = test system: T-47D breast
[54] = test system: TK-10 renal
[55] = test system: U251 CNS
[56] = test system: UACC-257 melanoma
[57] = test system: UACC-62 melanoma
[58] = test system: UO-31 renal

SMILES: CCOC(=O)C1=C(N)N(c2ccccc2)C2=C(C(=O)CC(C)(C)C2)C1c1ccc(Cl)cc1Cl (stereo unspecified)
- GI50 [1]: 42.4 µM
- TGI [1]: > 100 µM
- GI50 [2]: 45.4 µM
- TGI [2]: > 100 µM
- GI50 [3]: 18.8 µM
- TGI [3]: > 100 µM
- GI50 [4]: 18.3 µM
- TGI [4]: > 100 µM
- GI50 [5]: 45.8 µM
- TGI [5]: > 100 µM
- GI50 [6]: 6.82 µM
- TGI [6]: > 100 µM
- GI50 [7]: 31 µM
- TGI [7]: > 100 µM
- GI50 [8]: 20.6 µM
- TGI [8]: 91.3 µM
- GI50 [9]: 67.1 µM
- TGI [9]: > 100 µM
- GI50 [10]: 26.2 µM
- TGI [10]: > 100 µM
- GI50 [11]: 27.7 µM
- TGI [11]: > 100 µM
- GI50 [12]: 7.89 µM
- TGI [12]: > 100 µM
- GI50 [13]: 15.2 µM
- TGI [13]: > 100 µM
- GI50 [14]: 5.95 µM
- TGI [14]: > 100 µM
- GI50 [15]: 48.8 µM
- TGI [15]: > 100 µM
- GI50 [16]: 3.89 µM
- TGI [16]: 65.5 µM
- GI50 [17]: 76.8 µM
- TGI [17]: > 100 µM
- GI50 [18]: 19.8 µM
- TGI [18]: > 100 µM
- GI50 [19]: 79.7 µM
- TGI [19]: > 100 µM
- GI50 [20]: 7.23 µM
- TGI [20]: > 100 µM
- GI50 [21]: 23.6 µM
- TGI [21]: > 100 µM
- GI50 [22]: 32.4 µM
- TGI [22]: > 100 µM
- GI50 [23]: 34.8 µM
- TGI [23]: > 100 µM
- GI50 [24]: 29.3 µM
- TGI [24]: > 100 µM
- GI50 [25]: 17.7 µM
- TGI [25]: > 100 µM
- GI50 [26]: 33.5 µM
- TGI [26]: > 100 µM
- GI50 [27]: 32.1 µM
- TGI [27]: > 100 µM
- GI50 [28]: 6.83 µM
- TGI [28]: 53.8 µM
- GI50 [29]: 9.56 µM
- TGI [29]: > 100 µM
- GI50 [30]: 23.4 µM
- TGI [30]: > 100 µM
- GI50 [31]: 25.1 µM
- TGI [31]: > 100 µM
- GI50 [32]: 13.9 µM
- TGI [32]: > 100 µM
- GI50 [33]: 22.2 µM
- TGI [33]: > 100 µM
- GI50 [34]: 26.2 µM
- TGI [34]: > 100 µM
- GI50 [35]: 28.3 µM
- TGI [35]: > 100 µM
- GI50 [36]: 72.6 µM
- TGI [36]: > 100 µM
- GI50 [37]: 37.2 µM
- TGI [37]: > 100 µM
- GI50 [38]: 4.14 µM
- TGI [38]: > 100 µM
- GI50 [39]: 7.07 µM
- TGI [39]: > 100 µM
- GI50 [40]: 13.8 µM
- TGI [40]: > 100 µM
- GI50 [41]: 53.2 µM
- TGI [41]: > 100 µM
- GI50 [42]: 20.3 µM
- TGI [42]: > 100 µM
- GI50 [43]: 37.8 µM
- TGI [43]: > 100 µM
- GI50 [44]: 17 µM
- TGI [44]: 58 µM
- GI50 [45]: 66.7 µM
- TGI [45]: > 100 µM
- GI50 [46]: 12.4 µM
- TGI [46]: 25.6 µM
- GI50 [47]: 33.5 µM
- TGI [47]: > 100 µM
- GI50 [48]: 30.8 µM
- TGI [48]: > 100 µM
- GI50 [49]: 29.2 µM
- TGI [49]: > 100 µM
- GI50 [50]: 53.3 µM
- TGI [50]: > 100 µM
- GI50 [51]: 14.7 µM
- TGI [51]: > 100 µM
- GI50 [52]: 29 µM
- TGI [52]: > 100 µM
- GI50 [53]: 10.4 µM
- TGI [53]: > 100 µM
- GI50 [54]: 56.3 µM
- TGI [54]: > 100 µM
- GI50 [55]: 24.6 µM
- TGI [55]: > 100 µM
- GI50 [56]: 28.8 µM
- TGI [56]: > 100 µM
- GI50 [57]: 12.6 µM
- TGI [57]: > 100 µM
- GI50 [58]: 11.5 µM
- TGI [58]: > 100 µM
